What was measured:
WT EGFR = tested on: WT EGFR; design: method as in PMID 22227214; conditions: cited from earlier work
mutant EGFRT790M/L858R = tested on: mutant EGFRT790M/L858R; design: method as in PMID 22227214; conditions: cited from earlier work
A549 = tested on: A549; design: method as in PMID 22227214; conditions: read-out: IC50 antiproliferative activity A549; cited from earlier work
A431 = tested on: A431; design: method as in PMID 22227214; conditions: read-out: IC50 antiproliferative activity A431; cited from earlier work
NCIH1975 = tested on: NCIH1975; design: method as in PMID 22227214; conditions: read-out: IC50 antiproliferative activity NCIH1975; cited from earlier work
HeLa (cervical cancer) = test: MTT in vitro cytotoxicity assay, HeLa; format: cell-based, human; conditions: Homo sapiens
Protocol: (§1) The synthesized compounds were evaluated for in-vitro cytotoxic activity against various cell lines such as HeLa (cervical cancer), MCF-7 (breast cancer), HL-60 (Human promyelocytic leukemia), HepG2 (Hepatocellular carcinoma) and MCF 12A (normal epithelial cell) by the MTT assay method. […] The relationship between surviving fraction and drug concentration was plotted to obtain the survival curve of all the cancer cell lines HeLa, MCF-7, HL-60 and HepG2. The response parameter calculated was the IC50 values, which responds to the concentration required for 50% inhibition of cell viability. The in-vitro cytotoxic activity of the synthesized compounds is summarized Table 3.
(§2) The target compounds were subjected to in vitro cytotoxicity bioassay. In vitro cytotoxicity was determined using a standard MTT assay with protocol appropriate for the individual test system[29]–[31]. The four human cancer cell lines HeLa, MCF-7, HL-60, HepG2 and MCF-12A were cultured in the MEM medium supplemented with 10% FBS, 1% glutamine and […] gentamicin sulfate in a CO2 incubator in a humidified atmosphere of 5% CO2 and 95% air. The test compounds were prepared prior to the experiment by dissolving in 0.1% DMSO and diluted with medium. The cells were then exposed to different concentrations of drugs ([…]) in the volume of […]. Cells in the control wells received the same volume of medium containing 0.1% DMSO. After 24 h, the medium was removed and cell cultures were incubated with […] MTT reagent (1 mg/ml) for 5 h at 37 °C. The known number of cells ([…]) was incubated in a 5% CO2 incubator at 37 °C in the presence of different concentrations of test compounds. After 48 h of drug incubation, the MTT solution was added in each well and absorbance was recorded at 540 nm by an ELISA reader. The experiment was performed in triplicate. Cell survival was calculated as the percentage of MTT inhibition as % growth inhibition = 100 − (mean OD of individual test Group/Mean OD of each Control Group) × 100.

MCF-7 (breast cancer) = test: MTT in vitro cytotoxicity assay, MCF-7; format: cell-based, human; conditions: Homo sapiens, MCF7
Protocol: as §1, §2

[1] = tested on: HL-60 (Human promyelocytic leukemia); test: MTT in vitro cytotoxicity assay, HL-60; format: cell-based; conditions: Homo sapiens
Protocol: as §1, §2

[2] = tested on: HepG2 (Hepatocellular carcinoma); test: MTT in vitro cytotoxicity assay, HepG2; format: cell-based, human; conditions: Homo sapiens, NA: Not active
Protocol: as §1, §2

[3] = tested on: MCF 12A (normal epithelial breast cell line); test: MTT assay on normal cells, MCF 12A; format: cell-based, human; conditions: Homo sapiens, normal epithelial breast cell MCF 12A
Protocol: as §1
The presence of non-halogen substituent along with electron donating substituent seriously jeopardise the anticancer potential. […] To determine the selectivity of these molecules between normal and cancerous cells, the designed compounds were also tested against MCF 12A, a normal epithelial breast cell.
as §2

EGFR-TK = molecular target: T1, EGFR-TK (Homo sapiens, UniProt P00533); test: EGFR tyrosine kinase inhibitory activity (Kinase-Glo Plus luminescence); format: biochemical; conditions: at 10 µM; read-out: Percent of Inhibition, EGFR tyrosine kinase
T1 construct: 0.2 mg/mL Poly (Glu, Tyr) substrate, 10 mM ATP and EGFR
T1 sequence (P00533 25-1210): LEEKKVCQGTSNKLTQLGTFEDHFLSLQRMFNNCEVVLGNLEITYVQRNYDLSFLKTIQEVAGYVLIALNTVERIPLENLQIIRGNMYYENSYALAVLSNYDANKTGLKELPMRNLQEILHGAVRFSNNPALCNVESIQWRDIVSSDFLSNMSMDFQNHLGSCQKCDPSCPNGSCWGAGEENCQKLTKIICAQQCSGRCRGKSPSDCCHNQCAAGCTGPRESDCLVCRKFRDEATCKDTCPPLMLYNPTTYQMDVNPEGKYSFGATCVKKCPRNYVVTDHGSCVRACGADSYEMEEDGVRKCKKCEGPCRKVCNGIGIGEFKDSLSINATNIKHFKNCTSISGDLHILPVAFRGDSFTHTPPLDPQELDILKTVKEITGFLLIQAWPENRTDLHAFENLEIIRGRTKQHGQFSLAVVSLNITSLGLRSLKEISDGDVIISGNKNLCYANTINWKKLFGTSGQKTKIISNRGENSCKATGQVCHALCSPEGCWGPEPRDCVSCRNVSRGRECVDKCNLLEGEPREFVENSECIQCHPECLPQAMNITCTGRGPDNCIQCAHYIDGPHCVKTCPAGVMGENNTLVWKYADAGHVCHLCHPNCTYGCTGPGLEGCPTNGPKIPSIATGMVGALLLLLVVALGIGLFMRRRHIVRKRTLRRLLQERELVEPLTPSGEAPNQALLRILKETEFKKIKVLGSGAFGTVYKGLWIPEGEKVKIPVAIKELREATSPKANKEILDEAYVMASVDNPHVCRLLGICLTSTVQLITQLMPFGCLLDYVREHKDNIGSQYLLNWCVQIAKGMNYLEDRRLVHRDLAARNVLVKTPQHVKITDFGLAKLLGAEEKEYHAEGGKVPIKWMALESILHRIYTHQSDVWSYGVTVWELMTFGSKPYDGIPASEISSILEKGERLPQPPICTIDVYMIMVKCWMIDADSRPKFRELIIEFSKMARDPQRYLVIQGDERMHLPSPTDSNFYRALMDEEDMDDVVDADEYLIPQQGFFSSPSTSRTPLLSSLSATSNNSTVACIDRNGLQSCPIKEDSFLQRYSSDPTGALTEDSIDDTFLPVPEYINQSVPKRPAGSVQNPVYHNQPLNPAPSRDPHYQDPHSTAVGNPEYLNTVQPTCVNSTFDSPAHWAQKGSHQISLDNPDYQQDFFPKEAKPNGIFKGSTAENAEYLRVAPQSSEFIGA
Protocol: Kinase activity was determined using Kinase-Glo Plus luminescence kinase assay kit, by quantitating the amount of ATP remaining in the solution of kinase reaction. The luminescent signal is correlated with the residual amount present and it was inversely related with kinase activity. The tested compounds were diluted to 100 mM in 10% DMSO, then […] of the dilution was added to a 50 mL reaction. All of the enzymatic reactions were performed at 30 °C for 40 min, 50 mL of reaction mixture contains 10 mM MgCl2, 40 mM Tris, pH 7.4, 0.1 mg/mL BSA, 0.2 mg/mL Poly (Glu, Tyr) substrate, 10 mM ATP and EGFR. Incubate the plate for 5 min at r.t. then add 50 mL of Kinase-GloPlus Luminescence kinase assay to each reaction. ADP-Glo assay kit is the protein kinase assays used to determine IC50 values in which ADP generation was measured as it leads to an increase in luminescence signal. The reaction mixture was incubated in a 96-well plate at 30 °C for 30 min, after the incubation period add 25 mL of ADP-Glo reagent to terminate the assay. Shake the 96-well plate for 30 min at ambient temperature then incubate it, then add 50 mL of kinase detection reagent. Read the 96-well plate using the ADP-Glo Luminescence reader. All the assay components were added to the blank control except the substrate. By removing the blank control value you can obtain the corrected activity for each protein kinase target.

Row | inhibition at 10 µM (EGFR-TK) [%] | melting point [°C] | Structure (SMILES) | IC50 (WT EGFR) [µM] | IC50 (mutant EGFRT790M/L858R) [µM] | IC50 (A549) [µM] | IC50 (A431) [µM] | IC50 (NCIH1975) [µM] | IC50 (HeLa (cervical cancer)) [µM] | IC50 (MCF-7 (breast cancer)) [µM] | IC50 [1] [µM] | IC50 [2] [µM] | IC50 [3] [µM]
1 | – | – | CC(C)Nc1nc(N/N=C/c2cc(Br)c(O)c(Br)c2O)nc(Nc2ccc(F)cc2)n1 [1a] | 25.9 | 6.5 | 7.7 ± 1.3 | 8 ± 1.6 | 10.5 ± 0.9 | – | – | – | – | –
2 | – | – | CNc1nc(N/N=C/c2ccc(O)cc2)nc(Nc2ccccc2)n1 [1f] | > 100 | 30.7 | – | – | – | – | – | – | – | –
3 | 82.4 | 112 to 114 | CCOC(=O)C1=C(C)N(c2nc(Nc3ccc(Cl)cc3)nc(Nc3ccc(Cl)cc3)n2)C(=S)NC1c1ccccc1Cl (stereo not drawn) [7j, Ethyl 1-(4,6-bis((4-chlorophenyl)amino)-1,3,5-triazin-2-yl)-4-(2-chlorophenyl)-6-methyl-2-thioxo-1,2,3,4-tetrahydropyrimidine-5-carboxylate] | – | – | – | – | – | 46.2 ± 0.56 | 57 ± 0.47 | 39.6 ± 0.78 | 38.7 ± 0.32 | 69.13 ± 0.62
4 | 88.5 | 153 to 155 | CCOC(=O)C1=C(C)N(c2nc(Nc3cccc(Cl)c3)nc(Nc3cccc(Cl)c3)n2)C(=S)NC1c1ccc(F)cc1 (stereo not drawn) [7m, Ethyl 1-(4,6-bis((3-chlorophenyl)amino)-1,3,5-triazin-2-yl)-4-(4-fluorophenyl)-6-methyl-2-thioxo-1,2,3,4-tetrahydropyrimidine-5-carboxylate] | – | – | – | – | – | 42.1 ± 0.34 | 53.8 ± 0.28 | 36.5 ± 0.48 | 39.3 ± 0.12 | 73.56 ± 0.4

— paper PMC5517562, “Design and discovery of novel monastrol-1,3,5-triazines as potent anti-breast cancer agent via attenuating Epidermal Growth Factor Receptor tyrosine kinase” (Scientific Reports, 2017)
